A short description of data set [1]: dissolution (liberation) of terfenadine from capsules, FIG. 4. Format: physicochemical. Particulars: after 120 minutes; dose 60 mg. On the procedure:
Another active principle, terfenadine, was formulated with Gelucire® 44/14. The mixture was cast into a capsule in a manner that was similar to that of Example 1 above which used piroxicam.
The dose was 60 mg, for a total of 680 mg of formulation.
The graph of FIG. 4 was therefore obtained, illustrating the liberation L (%) of the active principle as a function of time t in minutes, in which: • the curve C1 (invention) corresponds to a mixture of terfenadine/Gelucire® 44/14/PEG 6000, in which the ratio by weight of Gelucire® 44/14/PEG 6000 is 65/35: • the curve C2 (invention) corresponds to a mixture of terfenadine/Gelucire® 44/14/PEG 6000, in which the ratio by weight of Gelucire® 44/14/PEG 6000 is 60/40; • the curve C3 (control 1) corresponds to a mixture of terfenadine/PEG 6000; • the curve C4 (control 2) corresponds to terfenadine alone.

For data set [2] the following is noted: water at 25° C.; cited from earlier work.

Consider one molecule from patent publication US11986528B2, “Use of a mixture of lauroyl macrogolglyceride and polyethylene glycol as an excipient” (GATTEFOSSE SAS, priority 2020, dated 2024).

≈ marks a conversion by molar mass, not a printed value.

For the molecule `CC(C)(C)c1ccc(C(O)CCCN2CCC(C(O)(c3ccccc3)c3ccccc3)CC2)cc1` (centres unmarked) [terfenadine], the “liberation L of terfenadine” value in data set [1] is “below 10%”. Also, in data set [2], the solubility in water is reported as 250 mg/L (≈ 530 µM).
